Key:
[1] = Cmax in Sprague-Dawley rat at 0.3 mg/kg administered as multiple dose after 8 days; assay type: ADME, organism-based; parameters: dose 0.3 mg/kg; conditions: in vivo
[2] = Half life in Beagle dog at 1 mg/kg administered as multiple dose after 7 days; assay type: ADME, organism-based, Canis lupus familiaris; parameters: dose 1 mg/kg; conditions: in vivo
Rattus norvegicus = assay: Decrease in triglyceride level in po dosed hypercholesterolemic Sprague-Dawley rat serum after 8 days; assay type: functional, organism-based
[3] = Half life in Beagle dog at 0.3 mg/kg administered as multiple dose after 7 days; assay type: ADME, organism-based, Canis lupus familiaris; parameters: dose 0.3 mg/kg; conditions: in vivo
[4] = Cmax in Beagle dog at 0.3 mg/kg administered as multiple dose after 7 days; assay type: ADME, organism-based, Canis lupus familiaris; parameters: dose 0.3 mg/kg; conditions: in vivo
[5] = Cmax in Beagle dog at 3 mg/kg administered as multiple dose after 7 days; assay type: ADME, organism-based, Canis lupus familiaris; parameters: dose 3 mg/kg; conditions: in vivo
[6] = AUC in Sprague-Dawley rat at 0.3 mg/kg administered as multiple dose after 8 days; assay type: ADME, organism-based; parameters: dose 0.3 mg/kg; conditions: plasma
[7] = Half life in ob/ob C57BL/6J-leptin deficient obese mouse at 0.1 mg/kg administered as multiple dose after 11 days; assay type: ADME, organism-based; parameters: dose 0.1 mg/kg; conditions: in vivo

Cc1cc(SCc2nc(-c3ccc(Cl)c(Cl)c3)ns2)ccc1OC(C)(C)C(=O)O
Cmax [1]: 231 ng/mL
half-life [2]: 4.7 h
Activity (Rattus norvegicus): Dose-dependent effect
half-life [3]: 6.5 h
Cmax [4]: 398 ng/mL
Cmax [5]: 6710 ng/mL
AUC at 192 h [6]: 2400 ng·h/mL
half-life [7]: 5.1 h

— ChEMBL document CHEMBL1143875, “Synthesis and structure-activity relationships of thiadiazole-derivatives as potent and orally active peroxisome proliferator-activated receptors alpha/delta dual agonists” (Bioorg Med Chem, 2008)
